The target of assay [1] is T1, Histamine H3 (Cavia porcellus, UniProt Q9JI35).
T1 construct: ileum longitudinal muscle myenteric plexus membranes; from tissue; host or cells: ileum longitudinal muscle myenteric plexus membranes of male Dunkin Hartley guinea pigs
Description: Histamine H3 radioligand binding assay, [3H]-R-α-methylhistamine, guinea pig ileum longitudinal muscle myenteric plexus membranes. The procedure: Histamine H3 Radioligand Binding Assay
Male Dunkin Hartley guinea pigs (200-300 g) were used. The small intestine was rapidly removed (cut ~5 cm from caecum and 5 cm from stomach) and placed in ice-cold 20 mM Hepes-NaOH buffer (pH7.4 at 21±3° C.). The tissue was cut into ~10 cm segments, flushed through with ice-cold 20 mM Hepes-NaOH buffer and placed in a beaker containing fresh buffer at 4° C. 10 cm segments of ileum were threaded onto a glass pipette and the longitudinal muscle myenteric plexus was peeled away from the circular muscle using damp cotton-wool. Longitudinal muscle myenteric plexus was immediately placed in ice-cold Viaspan® solution (~100 ml for tissue from 3 guinea pigs) and placed in the refrigerator for 24 hours.
Pre-soaked tissue was weighed and minced with scissors. The tissue was then homogenised in Viaspan® using a polytron (Kinematica AG; PT-DA 3020/2TS, 3×~1-2 s). 50 ml of 500 mM Tris HCl (pH6.9 at 21±3° C.) was added to the tissue and the mixture centrifuged at 39,800×g for 12 min at 4° C. The supernatant was discarded and rehomogenised in 100 ml ice-cold 20 mM Hepes-NaOH buffer (pH7.4 at 21±3° C.) using a teflon-in-glass homogeniser (setting 10; 3×). The homogenate was recentrifuged at 39,800×g and the pellet resuspended in 20 mM Hepes-NaOH buffer (pH7.4 at 21±3° C.), to a tissue concentration of 50 mg.ml^-1, using a polytron (Brinkman, PT10, 3×~1 s).
Guinea pig ileum longitudinal muscle myenteric plexus membranes (400 μl) were incubated for 165 min at 21±3° C. in a final volume of 500 μl with 20 mM Hepes-NaOH buffer containing [^3 H]-R-α-methylhistamine (50 μl; 3 nM) and competing compound. Total and non-specific binding of [^3 H]-R-α-methylhistamine were defined using 50 μl of buffer and 50 μl of 10 μM thioperamide, respectively. The assay was terminated by rapid filtration through Whatman GF/B filters, presoaked (2 hr) in 0. 1% polyethyleneimine,using a Brandell Cell Harvester. The filters were washed (3×3 ml) with ice-cold 50 mM Tris-HCl (pH6.9 at 21±3° C.), transferred into scintillation vials, 5 ml liquid scintillation cocktail was added and after 4 hours the bound radioactivity was determined by counting (4 min) in a Beckman liquid scintillation counter.
Data are analysed using GraphPad prism and the general equation for a competition curve with variable Hill slope (nH).
Y=Non-specific binding+(Total binding-Non-specific binding)/1+10^((logIC.sbsp.50^-X).n.sbsp.H^)
X is the log concentration of competing compound, Y is the binding obtained at each concentration of X, pIC50 is the concentration of the competitor required to compete for half of the specific binding.
The IC50 is converted to the K1 using the Cheng Prusoff equation, […]
IC50 is the concentration of competitor required to compete for half the specific binding, L is the radioligand concentration used, KD is the equilibrium dissociation constant for the radioligand determined by saturation experiments.
(§1) Typical variance in the functional assay is ±0.15 log units. Typical variance in the binding assay is ±0.12 log units. This means that if the discrepancy between the two assays is greater than about 0.5 log units, then this difference on average is significant.

Assay [2] has as its target T2, H3 receptor (Cavia porcellus, UniProt Q9JI35).
T2 construct: the longitudinal muscle layer and adhering myenteric plexus was teased away; from tissue; host or cells: ileal longitudinal muscle with adhering myenteric plexus of male Dunkin-Hartley guinea pigs
Description: H3 receptor bioassay (functional assay), guinea pig ileal longitudinal muscle myenteric plexus. The settings on record: antagonism of R-(α)-methylhistamine E/[A] curve, Schild's methods; electrically stimulated guinea pig ileum; variance ±0.15 log units; read-out: pKB (functional assay) (converted). The assay is classed as cell-based. How it is done: The biological activity of the compounds of the examples was measured using the ileal longitudinal muscle, myenteric plexus assay described by Paton and Aboo Zar (J. Physiol. 194, 13-33 (1968)). Male Dunkin-Hartley guinea pigs (250-300 g) were employed. Briefly, a 50 cm portion of ileum proximal to the caecum was removed, after discarding the terminal 20 cm. Ileal segments (3 cm) were cleaned by passing Krebs-Henseleit buffer containing 3 μM mepyramine gently through the ileum using a Pasteur pipette (size: 13.8 cm length, 0.65 cm diameter). To avoid unnecessary damage to the tissue, Krebs-Henseleit buffer was passed through the ileal segment, while it was lying horizontally on a petri dish. Therefore, the ileum was not over-distended and the buffer flowed through with ease. Each segment was then passed over a Pasteur pipette and the longitudinal muscle layer and adhering myenteric plexus was teased away using moist cotton wool, by stroking tangentially away from the mesenteric attachment. The tissues were suspended in 20 ml organ baths containing Krebs-Henseleit buffer at 37±1° C. and gassed with […]. The tissues were ligated to two parallel stainless steel wires, situated between two platinum electrodes (0.76 cm length, 0.06 cm diameter). All measurements were recorded isometrically (Grass FTO3 transducer). Following an initial loading tension of 1 g, the tissues were stimulated with electrical pulses at a frequency of 0.1 Hz and a pulse duration of 0.5msec, as described by Kosterlitz & Watt (1968). Initially, the tissues were stimulated at supramaximal (1.3 fold times maximal) voltage for a period of 30 min and then the tissues were washed and re-stimulated. A "sighter dose" of the selective histamine H3 -receptor agonist, R-(α)-methylhistamine(0.3 μM) (Arrang et al., 1987), was administered. Upon generation of response, the "sighter dose" was removed from the tissues by "washout" (6 washes over 60 min) and during this period the electrical stimulation was switched off. The tissues were then re-stimulated and allowed to stabilise prior to the addition of drug treatments, which were allocated on a randomised block basis to the organ baths. Following the incubation period, a single cumulative E/[A] curve was obtained. The experimental E/[A] curve data was expressed as the percentage inhibition of the peak height of electrically-stimulated contraction. Antagonist affinity values were calculated from the degree of rightward shift of the R-(α)-methylhistamine E/[A] curves using Schild's methods (Arunlatcshama & Schild, 1949).
as §1

The mark [3] stands for this setting: 3 nM [3H]-R-α-methylhistamine, 165 min, 21±3° C., Cheng Prusoff, variance ±0.12 log units.
The mark [4] stands for this setting: 3 nM [3H]-R-α-methylhistamine, 165 min, 21±3° C., Cheng Prusoff, variance ±0.12 log units, read-out: pK1 (binding assay) (converted).

Like-named read-outs stand apart in the source and are kept apart here.

T1 sequence (Q9JI35 whole entry): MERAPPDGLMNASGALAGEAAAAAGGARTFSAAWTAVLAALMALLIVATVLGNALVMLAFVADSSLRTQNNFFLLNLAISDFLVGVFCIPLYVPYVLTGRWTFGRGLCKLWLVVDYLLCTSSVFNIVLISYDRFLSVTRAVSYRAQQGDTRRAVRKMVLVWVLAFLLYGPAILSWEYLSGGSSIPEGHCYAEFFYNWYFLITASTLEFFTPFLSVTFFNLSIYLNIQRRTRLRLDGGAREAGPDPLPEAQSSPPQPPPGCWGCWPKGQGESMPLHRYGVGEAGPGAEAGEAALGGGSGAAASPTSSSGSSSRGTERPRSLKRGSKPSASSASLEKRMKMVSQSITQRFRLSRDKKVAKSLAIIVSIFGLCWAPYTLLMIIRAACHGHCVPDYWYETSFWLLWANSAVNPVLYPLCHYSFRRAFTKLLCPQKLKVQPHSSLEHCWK
T2 sequence (Q9JI35 whole entry): as above

With `O=S(=O)(Cc1ccc(Cl)cc1)NCCCCCCCCc1c[nH]cn1` [Example 33, N-[8-(4(5)-Imidazoyl)octyl]-(4-chlorophenyl)methanesulfonamide], the “pK1 (binding assay)” value in assay [1] (setting [3]) is reported as 7.27. In assay [2], the Kb was 229 nM.

For `O=S(=O)(NCCCCc1c[nH]cn1)NCc1ccc2ccccc2c1` [Example 50, N-[4-(4(5)-Imidazoyl)butyl]-N'-2-naphthylmethyl-sulfamide], the Ki in assay [1] (setting [4]) is 16.6 nM. Besides, in assay [2], the Kb was 18.6 nM.

Consider `O=S(=O)(NCCCCCc1c[nH]cn1)NCc1ccc(C(F)(F)F)cc1` [Example 63, N-[5-(4(5)-Imidazoyl)pentyl]-N'-(4-(trifluoromethyl)phenyl)methyl-sulfamide], for which the Ki in assay [1] (setting [4]) was 6.61 nM. The Kb in assay [2] was 4.07 nM.

Take `O=S(=O)(NCCCCCCCc1c[nH]cn1)NCc1ccc(Cl)cc1` [Example 38, N-[7-(4(5)-Imidazoyl)heptyl]-N'-(4-chlorophenyl)methyl-sulfamide]: in assay [1] (setting [3]), the “pK1 (binding assay)” value worked out at 8.15. The Kb in assay [2] was 4.27 nM.

With `O=S(=O)(NCCCCCc1c[nH]cn1)NCc1ccc(Cl)cc1` [Example 12, N-[5-(4(5)-Imidazoyl)pentyl]-N'-(4-chlorophenyl)methyl-sulfamide], the “pK1 (binding assay)” value in assay [1] (setting [3]) is recorded as 8.23. Besides, the Kb in assay [2] is 6.31 nM.

On to `O=S(=O)(CCC1CCCCC1)NCCc1c[nH]cn1` [Example 23, N-[2-(4(5)-Imidazoyl)ethyl]-2-cyclohexylethanesulfonamide], for which, in assay [1] (setting [3]), the “pK1 (binding assay)” value stood at 7.55. Further, in assay [2], the Kb was 1350 nM.

Turning to `O=S(=O)(NCCCc1c[nH]cn1)NCCc1ccc(Cl)cc1` [Example 56, N-[3-(4(5)-Imidazoyl)propyl]-N'-2-(4-chlorophenyl)ethyl-sulfamide], the Ki in assay [1] (setting [4]) was 138 nM. Further, the Kb in assay [2] is 447 nM.

For `O=S(=O)(NCc1ccc(Br)cc1)N(CCCCc1c[nH]cn1)Cc1ccc(Br)cc1` [Example 67, N,N'-Di-[(4-bromophenyl)methyl]-N-[4-(4(5)-imidazoyl)butyl]-sulfamide], in assay [1] (setting [4]), the Ki was 141 nM. Also, the Kb in assay [2] was 603 nM.

As to `O=S(=O)(NCCCCc1c[nH]cn1)NCc1ccc(Br)cc1` [Example 45, N-[4-(4(5)-Imidazoyl)butyl]-N'-(4-bromophenyl)methyl-sulfamide], in assay [1] (setting [3]), the “pK1 (binding assay)” value is on record as 8.71. Moreover, in assay [2], the Kb is 1.23 nM.

Regarding `O=S(=O)(Cc1ccc(Cl)cc1)NCCCCCCc1c[nH]cn1` [Example 11, N-[6-(4(5)-Imidazoyl)hexyl]-(4-chlorophenyl)methanesulfonamide], the “pK1 (binding assay)” value in assay [1] (setting [3]) was 7.95. Moreover, in assay [2], the Kb is 9.77 nM.

On to `O=S(=O)(NCCCCc1c[nH]cn1)NCc1ccccc1Cl` [Example 43, N-[4-(4(5)-Imidazoyl)butyl]-N'-(2-chlorophenyl)methyl-sulfamide], for which the Ki in assay [1] (setting [4]) was 56.2 nM. Further, in assay [2], the Kb was 380 nM.

Take `O=S(=O)(CCc1ccc(Cl)cc1)NCCCc1c[nH]cn1` [Example 53, N-[3-(4(5)-Imidazoyl)propyl]-2-(4-chlorophenyl)ethanesulfonamide]: the Ki in assay [1] is 56.2 nM. Moreover, the Kb in assay [2] was 182 nM.

Take `O=S(=O)(NCCCCCCc1c[nH]cn1)NCc1ccc(Cl)cc1` [Example 15, N-[6-(4(5)-Imidazoyl)hexyl]-N'-(4-chlorophenyl)methyl-sulfamide]: the “pK1 (binding assay)” value in assay [1] (setting [3]) was determined as 8.36. Moreover, the Kb in assay [2] was 1.7 nM.

For the compound `O=S(=O)(Cc1ccc(Cl)cc1)NCCCCCc1c[nH]cn1` [Example 9, N-[5-(4(5)-Imidazoyl)pentyl]-(4-chlorophenyl)methanesulfonamide], the “pK1 (binding assay)” value in assay [1] (setting [3]) came to 7.94. In addition, the Kb in assay [2] was 46.8 nM.

In the case of `O=S(=O)(Cc1ccc(Cl)cc1)NCCCCCCCc1c[nH]cn1` [Example 32, N-[7-(4(5)-Imidazoyl)heptyl]-(4-chlorophenyl)methanesulfonamide], the “pK1 (binding assay)” value in assay [1] (setting [3]) stood at 7.44. Moreover, the Kb in assay [2] is 43.7 nM.

As for `O=S(=O)(NCCCCCCc1c[nH]cn1)NCc1ccc(-c2ccccc2)cc1` [Example 62, N-[6-(4(5)-Imidazoyl)hexyl]-N'-(4biphenyl)methyl-sulfamide], the Ki in assay [1] (setting [4]) was 5.75 nM. Also, the Kb in assay [2] is 7.41 nM.

In the case of `O=S(=O)(CCc1ccc(Cl)cc1)NCCCCc1c[nH]cn1` [Example 55], in assay [1] (setting [4]), the Ki was 7.76 nM. In assay [2], the Kb was 6.03 nM.

For `O=S(=O)(NCCCCc1c[nH]cn1)NCc1cccc(Cl)c1` [Example 42, N-[4-(4(5)-Imidazoyl)butyl]-N'-(3-chlorophenyl)methyl-sulfamide], the Ki in assay [1] (setting [4]) is 16.2 nM. Besides, in assay [2], the Kb was 13.8 nM.

As for `O=S(=O)(NCCCCc1c[nH]cn1)NCc1ccc(I)cc1` [Example 44, N-[4-(4(5)-Imidazoyl)butyl]-N'-(4-iodophenyl)methyl-sulfamide], the “pK1 (binding assay)” value in assay [1] (setting [3]) is 8.68. The Kb in assay [2] is 3.24 nM.

Regarding `O=S(=O)(NCCCCCc1c[nH]cn1)c1ccc2ccccc2c1` [Example 6, N-[5-(4(5)-Imidazoyl)pentyl]-2-naphthalenesulfonamide], the “pK1 (binding assay)” value in assay [1] (setting [3]) came out at 7.50. Also, in assay [2], the Kb is 110 nM.

Turning to `O=S(=O)(NCCCCc1c[nH]cn1)NCc1ccc(Cl)c(Cl)c1` [Example 41, N-[4-(4(5)-Imidazoyl)butyl]-N'-(3,4-dichlorophenyl)methyl-sulfamide], the Ki in assay [1] (setting [4]) was 4.27 nM. In assay [2], the Kb was 3.89 nM.

Consider `O=S(=O)(NCCCCc1c[nH]cn1)NCc1ccc(F)cc1` [Example 46, N-[4-(4(5)-Imidazoyl)butyl]-N'-(4-fluorophenyl)methyl-sulfamide], for which, in assay [1] (setting [3]), the “pK1 (binding assay)” value came out at 7.84. Also, in assay [2], the Kb is 20 nM.

Turning to `O=S(=O)(NCCCCCCCCc1c[nH]cn1)c1ccc2ccccc2c1` [Example 30, N-[8-(4(5)-Imidazoyl)octyl]-2-naphthalenesulfonamide], the “pK1 (binding assay)” value in assay [1] (setting [3]) is 6.97. Besides, the Kb in assay [2] is 240 nM.

As for `O=S(=O)(NCCCCCc1c[nH]cn1)NCc1ccc(Br)cc1` [Example 64, N-[5-(4(5)-Imidazoyl)pentyl]-N'-(4-bromophenyl)methyl-sulfamide], the Ki in assay [1] (setting [4]) is 5.01 nM. Further, the Kb in assay [2] was 3.89 nM.

Source of the values: US6080871A, “Sulfonamides and sulfamides as H3 receptor antagonists” (James Black Foundation Limited, priority 1996, dated 2000).
